Measured values published in patent publication US5604226A, “Pyridazinone derivatives, processes for production thereof and use thereof” (Nihon Nohyaku Co., Ltd., priority 1993, dated 1997).

Tests used:
[1] = tested on: thrombocytopenia in mice (collagen-induced, platelet count); test: Activity of preventing thrombocytopenia in mice, collagen i.v. (Experiment 3); format: in vivo, male ddY mice; settings: Mus musculus, 3.0 mg/kg oral, 1 hour before collagen 0.5 mg/kg i.v., * p = 5%, ** p = 1%, *** p = 0.1%, read-out: Average Inhibition Rate (platelet count; normal mouse 100, control mouse 0)
Method: Activity of preventing thrombocytopenia in mice:
Collagen (Holm Co.) diluted with physiological saline was intravenously given through the vein to male ddY mice of 6 weeks old, weighing 28-31 g, which had been fasted for 4-5 hours, in a dose of 0.5 mg/kg. Five minutes after, blood was collected from the lower thigh vein under pentobarbital anesthesia through a plastic syringe treated with heparin containing 3.8% sodium citrate. The drug was orally given an hour before the collagen administration. The platelet count was measured with Sysmex E-4000. The inhibition activity is shown in terms of percentage of the platelet count when the platelet count of normal mouse was made 100 and the platelet count of control mouse was made 0.

[2] = tested on: ADP-inducing platelet aggregation; test: Rabbit exo-vivo test, ADP-inducing platelet aggregation after oral administration (Experiment 2); format: in vivo, Japanese white rabbits
Method: Japanese white rabbits weighing 3.0-4.0 kg were fasted for 18 hours. A drug suspension in 2% gum arabic aqueous solution was orally given to the animal in a definite dose. Blood was collected 1 and 4 hours after. PRP was prepared in a manner similar to Experiment 1 and ADP-inducing platelet aggregation function was determined. An inhibition rate was calculated based on an aggregation rate of ADP prior to administration of the compound.

[3] = tested on: Platelet aggregation (ADP, rabbit platelet rich plasma); test: Platelet aggregation inhibition in rabbit PRP, ADP-induced, Born's turbidimetry (Experiment 1); format: cell-based; settings: Oryctolagus cuniculus, 0.05 h, ADP 2 to 4 μM, 3 min incubation, read-out: Aggregation Inhibition Rate; for inhibition at 1 µg/mL: 10^-6 g/ml; for inhibition at 0.1 µg/mL: 10^-7 g/ml
Method: Blood was collected from the ear vein of rabbit, together with 1/10 volume sodium citrate. Centrifugation at 1,200 rpm for 10 minutes gave the supernatant which was made platelet rich plasma (PRP). The blood was further centrifuged at 3,000 rpm for 10 minutes to give platelet poor plasma (PPP). The platelet count of PRP was adjusted to 300,000/μl with PPP, which was provided for the test. Platelet aggregation was determined with aggregometer (HEMATRACERVI, Niko Bioscience Co.) based on Born's turbidimetry. That is, 200 μl of PRP was charged in a cell and 1 μl of a drug solution dissolved in dimethylsulfoxide was added thereto. After incubation for 3 minutes, ADP was added in a concentration of 2 to 4 μM to cause aggregation. Change in transmittance in the cell was then monitored. The results are shown in Table 2, in terms of aggregation inhibition rate which was determined by comparing a transmittance of control with that obtained at the maximum aggregation on an aggregation curve when the transmittance of PRP was made 0% and the transmittance of PPP was made 100%.

| SMILES | inhibition in vivo at 3 mg/kg [1] | inhibition at 1 µg/mL [3] | inhibition at 0.1 µg/mL [3] | other results |
| --- | --- | --- | --- | --- |
| COc1ccc(CNc2c(OCCCc3ccccc3)n[nH]c(=O)c2Br)cc1OC [C, reference compound] | 27.4% |  |  | Average Inhibition Rate ([2]; 3 mg/kg oral, 1 Hour): 20%; Average Inhibition Rate ([2]; 3 mg/kg oral, 4 Hours): 23%; Average Inhibition Rate ([2]; 30 mg/kg oral, 1 Hour): 36%; Average Inhibition Rate ([2]; 30 mg/kg oral, 4 Hours): 35% |
| O=c1[nH]nc(OCCCc2ccccc2)c(NCc2cccnc2)c1Br [Comparative Compound A, reference compound] |  | 100% | 84% |  |
| COc1ccc(CNc2c(OCCOc3ccccc3)n[nH]c(=O)c2Br)cc1OC [Comparative Compound B, reference compound] |  |  | 79% |  |
| O=c1[nH]nc(OCCSc2ccccc2)c(NCc2cccnc2)c1Cl [Compound 1] |  | 100% | 37% |  |
| O=c1[nH]nc(OCCCSc2ccccc2)c(NCc2cccnc2)c1Cl [Compound 2, 4-chloro-6-[3-(phenylthio)propyloxy]-5-(3-picolylamino)-3(2H)-pyridazinone] |  | 100% | 27% |  |
| COc1ccc(CNc2c(OCCSc3ccccc3)n[nH]c(=O)c2Cl)cc1OC [Compound 4] |  | 100% | 100% |  |
| COc1ccc(CNc2c(OCCSc3ccccc3)n[nH]c(=O)c2Br)cc1OC [Compound 6, 4-bromo-5-(3,4-dimethoxyphenylmethyl-amino)-6-[2-(phenylthio)ethyloxy]-3(2H)-pyridazinone] | 33% | 100% | 100% |  |
| COc1ccc(CNc2c(OCCCSc3ccccc3)n[nH]c(=O)c2Br)cc1OC [Compound 7] |  | 100% | 74% |  |
| COc1ccc(CNc2c(OCCS(=O)(=O)c3ccccc3)n[nH]c(=O)c2Br)cc1OC [Compound 10, 4-bromo-5-(3,4-dimethoxyphenylmethylamino)-6-[2-(phenylsulfonyl)ethyloxy]-3(2H)-pyridazinone] |  |  | 100% |  |
| COc1ccc(CNc2c(OCCCS(=O)(=O)c3ccccc3)n[nH]c(=O)c2Br)cc1OC [Compound 11] |  |  | 71% |  |
| COc1ccc(CNc2c(OCCSc3ccccc3)nn(CN3CCOCC3)c(=O)c2Br)cc1OC [Compound 12] | 43% |  | 100% |  |
| COc1ccc(CNc2c(OCC[S+]([O-])c3ccccc3)nn(CN3CCOCC3)c(=O)c2Br)cc1OC (centres unmarked) [Compound 13] |  |  | 100% |  |
| COc1ccc(CNc2c(OCCSc3ccc(F)cc3)n[nH]c(=O)c2Br)cc1OC [Compound 14, 4-bromo-5-(3,4-dimethoxyphenylmethylamino)-6-[2-(4fluorophenylthio)ethyloxy]-3(2H)-pyridazinone] | 23.3% |  | 100% |  |
| COc1ccc(CNc2c(OCC[S+]([O-])c3ccc(F)cc3)n[nH]c(=O)c2Br)cc1OC (centres unmarked) [Compound 15, 4-bromo-5-(3,4-dimethoxyphenylmethyl-amino)-6-[2-(4-fluorophenylsulfinyl)ethyloxy]-3(2H)-pyridazinone] | 52.4% |  | 100% |  |
| COc1ccc(CNc2c(OCCS(=O)(=O)c3ccc(F)cc3)n[nH]c(=O)c2Br)cc1OC [Compound 16, 4-bromo-6-[2-(4-fluorophenylsulfonyl)ethyloxy]-5-(3,4-dimethoxyphenylmethylamino)-3(2H)-pyridazinone] | 35.7% |  | 100% |  |
| COc1ccc(CNc2c(OCCSc3ccc(F)cc3)nn(CN3CCN(C)CC3)c(=O)c2Br)cc1OC [Compound 17, 4-bromo-5-(3,4-dimethoxyphenylmethylamino)-6-[2-(4-fluorophenylthio)ethyloxy]-2-(4-methylpiperazinlylmethyl)-3(2H)-pyridazinone] |  |  | 100% |  |
| COc1ccc(CNc2c(OCCSc3ccccc3Cl)n[nH]c(=O)c2Br)cc1OC [Compound 18] | 30.1% |  | 100% |  |
| COc1ccc(CNc2c(OCC[S+]([O-])c3ccccc3Cl)n[nH]c(=O)c2Br)cc1OC (centres unmarked) [Compound 19, 4-bromo-6-[2-(2-chlorophenylsulfinyl)ethyloxy]-5-(3,4-dimethoxyphenylmethylamino)-3(2H)-pyridazinone] | 33.8% |  | 100% |  |

| SMILES | inhibition in vivo at 3 mg/kg [1] | inhibition at 1 µg/mL [3] | inhibition at 0.1 µg/mL [3] | other results |
| --- | --- | --- | --- | --- |
| COc1ccc(CNc2c(OCCSc3cccc(Cl)c3)n[nH]c(=O)c2Br)cc1OC [Compound 20] |  | 100% | 90% |  |
| O=c1[nH]nc(OCCSc2ccc(Cl)cc2)c(NCc2cccnc2)c1Cl [Compound 23] |  | 100% | 100% |  |
| COc1ccc(CNc2c(OCCSc3ccc(Cl)cc3)n[nH]c(=O)c2Cl)cc1OC [Compound 24] |  | 100% | 100% |  |
| Cc1ccc(SCCOc2n[nH]c(=O)c(Cl)c2NCc2cccnc2)cc1 [Compound 27] |  | 100% | 80% |  |
| COc1ccc(CNc2c(OCCSc3ccc(C)cc3)n[nH]c(=O)c2Cl)cc1OC [Compound 28] |  | 100% | 100% |  |
| COc1ccc(CNc2c(OCC[S+]([O-])c3ccc(C)cc3)n[nH]c(=O)c2Cl)cc1OC (centres unmarked) [Compound 29] |  | 100% | 100% |  |
| COc1ccc(CNc2c(OCC[S+]([O-])c3ccc(C)cc3)n[nH]c(=O)c2Br)cc1OC (centres unmarked) [Compound 30, 4-bromo-5-(3,4-dimethoxyphenylmethylamino)-6-[2-(p-tolylsulfinyl)ethyloxy]-3(2H)-pyridazinone] |  | 100% | 100% |  |
| COc1ccc(CNc2c(OCCSc3ccc(C)cc3C)n[nH]c(=O)c2Br)cc1OC [Compound 31, 4-bromo-5-(3,4-dimethoxyphenylmethylamino)-6-[2-(2,4-dimethylphenylthio)ethyloxy]-3(2H)-pyridazinone] |  |  | 100% |  |
| COc1ccc(CNc2c(OCC[S+]([O-])c3ccc(C)cc3C)n[nH]c(=O)c2Br)cc1OC (centres unmarked) [Compound 32, 4-bromo-5-(3,4-dimethoxyphenylmethyl-amino)-6-[2-(2,4-dimethylphenylsulfinyl)ethyloxy]-3(2H)pyridazinone] |  |  | 100% |  |
| COc1ccc(CNc2c(OCCS(=O)(=O)c3ccc(C)cc3C)n[nH]c(=O)c2Br)cc1OC [Compound 33, 4-bromo-5-(3,4-dimethoxyphenylmethyl-amino)-6-[2-(2,4-dimethylphenylsulfonyl)ethyloxy]-3(2H)-pyridazinone] |  |  | 100% |  |
| COc1ccc(SCCOc2n[nH]c(=O)c(Cl)c2NCc2cccnc2)cc1 [Compound 34] |  | 100% | 64% |  |
| COc1ccc(SCCOc2n[nH]c(=O)c(Cl)c2NCc2ccc(OC)c(OC)c2)cc1 [Compound 35] |  | 100% | 83% |  |
| COc1ccc(S(=O)(=O)CCOc2n[nH]c(=O)c(Cl)c2NCc2ccc(OC)c(OC)c2)cc1 [Compound 36] |  | 100% | 83% |  |
| COc1ccc(CNc2c(OCCSc3ccc(C#N)cc3)n[nH]c(=O)c2Br)cc1OC [Compound 37] | 35.4% | 100% | 100% |  |
| COc1ccc(CNc2c(OCC[S+]([O-])c3ccc(C#N)cc3)n[nH]c(=O)c2Br)cc1OC (centres unmarked) [Compound 38] | 21.8% |  | 100% |  |
| COc1ccc(CNc2c(OCCSc3ccc([N+](=O)[O-])cc3)n[nH]c(=O)c2Br)cc1OC [Compound 39, 4-bromo-5-(3,4-dimethoxyphenylmethylamino)-6-[2-(4-nitrophenylthio)ethyloxy]-3(2H)-pyridazinone] | 30.4% | 100% | 93% |  |
| COc1ccc(CNc2c(OCC[S+]([O-])c3ccc([N+](=O)[O-])cc3)n[nH]c(=O)c2Br)cc1OC (centres unmarked) [Compound 40] | 40.8% |  |  |  |
| CCN(CC)C(=O)c1ccc(SCCOc2n[nH]c(=O)c(Br)c2NCc2ccc(OC)c(OC)c2)cc1 [Compound 41] |  |  | 100% |  |
